Test results: patent US20080004311A1, “HISTONE DEACETYLASE INHIBITORS FOR TREATING DEGENERATIVE DISEASES OF THE EYE” (ALCON, INC., priority 2002, published 2008)

Test system: cultured adult rat retinal ganglion cells (RGC)
Experiment: Survival of cultured adult rat retinal ganglion cells (RGC), Thy-1-positive healthy cell count
Type: cell-based
Details: Thy-1-positive healthy cells counted; for RGC survival against trophic factor withdrawal (TFW)-induced toxicity: bFGF, BDNF and CNTF removed from medium, cultured with compound for 3 days; for RGC survival against TNFα-induced toxicity / RGC survival against glutamate-induced toxicity: pre-treated 30 minutes; for RGC survival against TNFα-induced toxicity: then 10 ng/mL TNFα for 3 days; for RGC survival against glutamate-induced toxicity: then 100 μM glutamate for 3 days
Method: Culture of rat retinal ganglion cells (RGC) was performed as described in Pang et al. (Pang et al., 2007, BMC Neuroscience 8:11). Adult Sprague-Dawley rats were briefly euthanized by CO2 asphyxiation. Their eyes were enucleated and placed in the Neurobasal medium. The retina from each eye was detached and isolated. Retinal cells were dissociated by combining up to 20 retinas with 5 mL of papain solution, containing 10 mg papain, 2 mg DL-cysteine, and 2 mg bovine serum albumin in 5 ml of Neurobasal medium, for 25 min at 37° C., then washed 3 times with 5 mL RGC medium (Neurobasal medium with various nutrient supplements)+1% fetal calf serum. Retinal pieces were triturated by passing through a fire-polished disposable pipette several times until cells were dispersed. Cell suspension was placed onto of the poly-D-lysine- and laminin-coated 8-well chambered culture slide. The cells were then cultured in 95% air/5% CO2 at 37° C.
For glutamate-induced toxicity studies, cells were pre-treated with vehicle (cell media plus 0.1% DMSO) or the indicated compounds for 30 minutes, followed by 100 μM glutamate for 3 days. For TNFα-induced toxicity studies, cells were pre-treated with vehicle or the indicated compounds for 30 minutes, followed by 10 ng/mL TNFα for 3 days. For s trophic factor withdrawal (TFW) studies, three trophic factors, basic fibroblast growth factor, brain-derived neurotrophic factor, and ciliary neurotrophic factor, were removed from the culture medium. Cells were cultured in this medium with the indicated compounds for 3 days.
At the end of the incubation period, the cells were fixed and labeled for Thy-1, a RGC marker, by immunocytochemistry. Cell survival was quantified by manually counting Thy-1-positive healthy cells in each well. As shown by the data in FIGS. 1, 2, and 3, APHA-8 (Sigma, St. Louis, Mo.) and Scriptaid™ (Sigma, St. Louis, Mo.) were protective against glutamate-, tumor necrosis factor-alpha (TNFα)-, and trophic factor withdrawal (TFW)-induced toxicity.

Cn1cc(C(=O)Cc2ccccc2)cc1C=CC(=O)NO [APHA-8, 3-(1-methyl-4-phenlyacetyl-1H-2-pyrrolyl)-N-hydroxy-2-propenamide]
protective: RGC survival against trophic factor withdrawal (TFW)-induced toxicity | RGC survival against TNFα-induced toxicity | RGC survival against glutamate-induced toxicity

O=C(CCCCCN1C(=O)c2cccc3cccc(c23)C1=O)NO [Scriptaid™, 6-(1,3-Dioxo-1H, 3H-benzo[de]isoquinolin-2-yl)-hexanoic acid hydroxyamide]
protective: RGC survival against trophic factor withdrawal (TFW)-induced toxicity | RGC survival against TNFα-induced toxicity | RGC survival against glutamate-induced toxicity
